Experiment [1] deals with T1, MMP-1 (Homo sapiens, UniProt P03956).
T1 construct: made in house; host or cells: MMP-1-transfected HT-1080 cells (spent media)
T1 sequence (P03956 100-469): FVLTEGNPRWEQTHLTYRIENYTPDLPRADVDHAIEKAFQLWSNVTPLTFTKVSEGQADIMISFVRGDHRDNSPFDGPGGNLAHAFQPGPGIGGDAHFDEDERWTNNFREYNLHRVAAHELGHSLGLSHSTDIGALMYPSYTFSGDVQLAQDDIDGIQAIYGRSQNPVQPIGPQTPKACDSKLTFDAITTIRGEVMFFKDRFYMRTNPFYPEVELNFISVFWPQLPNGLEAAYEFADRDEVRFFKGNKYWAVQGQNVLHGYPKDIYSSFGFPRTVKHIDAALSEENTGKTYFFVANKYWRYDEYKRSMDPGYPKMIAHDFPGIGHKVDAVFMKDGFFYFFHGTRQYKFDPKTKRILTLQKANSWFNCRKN
Briefly: In vitro MMP inhibition, Ki determination (fluorogenic substrate II). The conditions noted are these: value outside parentheses; read-out: MMP-1 Ki. The experiment is classed as biochemical.

Experiment [2] has as its target T2, MMP-13 (Homo sapiens, UniProt P45452).
T2 construct: made in house; host or cells: baculovirus / insect cells
The description is as above. The conditions noted are these: value outside parentheses; read-out: MMP-13 Ki. The experiment is classed as biochemical. The procedure, abridged: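 Ki determined with human recombinant MMP-13, baculovirus-expressed as proenzyme and activated with APMA. Fluorogenic MCA/Dpa substrate II at 4 μM (at or below Km) with low enzyme in Tris buffer pH 7.5 with CaCl2. Incubation was 1 h at room temperature, with fluorescence read at 330/420 nm.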

Several values for one entry are separate records, joined by “and”; a condition that tells them apart may be missing. Equal entries are not always repeated.

Take `O=C(NO)C1(S(=O)(=O)N2CCN(c3ncc(-c4cccc(-c5ccccc5)c4)s3)CC2)CCOCC1` [Example 365]: the Ki (in general, the equilibrium dissociation constant of an inhibitor or competing ligand from its target) in experiment [1] was above 10000 nM; in experiment [2] it was 101 nM.
On to `CC(C)c1ccc(-c2cnc(N3CCN(S(=O)(=O)C4(C(=O)NO)CCOCC4)CC3)s2)cc1` [Example 366], for which the figures for the Ki in experiment [1] and in experiment [2] were 2160 nM and 0.182 nM, respectively.
For `O=C(NO)C1(S(=O)(=O)N2CCC(c3ccc(CCC(F)(F)F)cn3)CC2)CCOCC1` [Example 367], the Ki in experiment [1] was 9760 nM; in experiment [2], 0.835 nM.
`O=C(NO)C1(S(=O)(=O)N2CCN(c3ncc(-c4ccc(O)cc4)s3)CC2)CCOCC1` [Example 368]: the Ki in experiment [1] was determined as 3350 nM; in experiment [2], 0.329 nM.
As to `O=C(NO)C1(S(=O)(=O)N2CCN(c3ncc(-c4ccc(Cl)c(Cl)c4)s3)CC2)CCOCC1` [Example 369], the Ki is above 10000 nM in experiment [1] and 1.35 nM in experiment [2].
`Cc1cccc(-c2cnc(N3CCN(S(=O)(=O)C4(C(=O)NO)CCOCC4)CC3)s2)c1` [Example 370]: the Ki turned out to be 5740 nM in experiment [1] and 4.16 nM in experiment [2].
On to `COc1ccc(-c2cnc(N3CCN(S(=O)(=O)C4(C(=O)NO)CCOCC4)CC3)s2)cc1OC` [Example 371], for which the Ki in experiment [1] turned out to be 8250 nM; in experiment [2], 1.35 nM.
Turning to `O=C(NO)C1(S(=O)(=O)N2CCN(c3ccc(-c4ccccc4)cn3)CC2)CCOCC1` [Example 372], the Ki in experiment [1] is 611 nM and 795 nM; in experiment [2], 0.485 nM and 0.654 nM.
`O=C(NO)C1(S(=O)(=O)N2CCC(COCc3ccccc3)CC2)CCOCC1` [Example 373]: the Ki in experiment [1] was above 10000 nM; in experiment [2] it was 3.37 nM.
In the case of `CCC=C1CCN(S(=O)(=O)C2(C(=O)NO)CCOCC2)CC1` [Example 374], the Ki was 303 nM in experiment [1] and 5.72 nM in experiment [2].
For the molecule `O=C(NO)C1(S(=O)(=O)N2CCC(COCC(F)(F)C(F)F)CC2)CCOCC1` [Example 375], the Ki in experiment [1] is above 10000 nM; in experiment [2], 509 nM.
Turning to `O=C(NO)C1(S(=O)(=O)N2CCC(COCC(F)(F)C(F)(F)F)CC2)CCOCC1` [Example 376], the Ki in experiment [1] was above 10000 nM; in experiment [2], 31.2 nM.
For the molecule `O=C(NO)C1(S(=O)(=O)N2CCC(COCC(F)(F)C(F)(F)C(F)(F)F)CC2)CCOCC1` [Example 377], the Ki in experiment [1] is above 10000 nM; in experiment [2] it was 87.5 nM.
With `O=C(NO)C1(S(=O)(=O)N2CCC(COCC(F)(F)C(F)(F)C(F)(F)C(F)F)CC2)CCOCC1` [Example 378], the Ki in experiment [1] is above 10000 nM; in experiment [2], 48.4 nM.
Turning to `CCCCc1ccc(-c2cnc(N3CCN(S(=O)(=O)C4(C(=O)NO)CCOCC4)CC3)s2)cc1` [Example 379], the results for the Ki in experiment [1] and in experiment [2] were above 10000 nM and 0.167 nM, respectively.
Consider `CCCCCc1ccc(-c2cnc(N3CCN(S(=O)(=O)C4(C(=O)NO)CCOCC4)CC3)s2)cc1` [Example 380], for which the Ki is above 10000 nM in experiment [1] and 0.651 nM in experiment [2].
As for `CCc1ccc(-c2cnc(N3CCN(S(=O)(=O)C4(C(=O)NO)CCOCC4)CC3)s2)cc1` [Example 381], the Ki turned out to be 3250 nM in experiment [1] and 0.074 nM in experiment [2].
Consider `O=C(NO)C1(S(=O)(=O)N2CCN(c3ncc(-c4cccnc4)s3)CC2)CCOCC1` [Example 382], for which the values for the inhibition constant (Ki) in experiment [1] and in experiment [2] were 2690 nM and 0.647 nM, respectively.
Take `NC(=O)c1ccccc1-c1cnc(N2CCN(S(=O)(=O)C3(C(=O)NO)CCOCC3)CC2)s1` [Example 383]: the figures for the Ki in experiment [1] and in experiment [2] were above 10000 nM and 104 nM, respectively.
Taken in the same sequence, the figures for `N#Cc1cccc(-c2cnc(N3CCN(S(=O)(=O)C4(C(=O)NO)CCOCC4)CC3)s2)c1` [Example 384] were 266 nM and 0.272 nM.
Regarding `O=C(NO)C1(S(=O)(=O)N2CCC(c3ccc(OCC(F)(F)C(F)F)cc3)CC2)CCN(CCN2CCOCC2)CC1` [Example 385], the results for the Ki in experiment [1] and in experiment [2] were above 10000 nM and 0.378 nM, respectively.
As for `O=C(NO)C1(S(=O)(=O)N2CCN(c3ccc(CCCC(F)(F)F)cc3F)CC2)CCOCC1` [Example 386], the Ki in experiment [1] is above 10000 nM; in experiment [2] it was 2.29 nM.
For the molecule `O=C(NO)C1(S(=O)(=O)N2CCN(c3ncc(-c4ccccn4)s3)CC2)CCOCC1` [Example 387], the Ki in experiment [1] was above 10000 nM; in experiment [2] it was 31 nM.
Taken in the same sequence, the figures for `CCCCc1ccc(C2CCN(S(=O)(=O)C3(C(=O)NO)CCNCC3)CC2)nc1` [Example 388] were above 10000 nM and 15.1 nM.
In the case of `O=C(NO)C1(S(=O)(=O)N2CCN(c3ccc(CCCC(F)(F)F)c(F)c3)CC2)CCOCC1` [Example 389], the Ki in experiment [1] was above 10000 nM; in experiment [2] it was 0.47 nM.
The corresponding values for `O=C(NO)C1(S(=O)(=O)N2CCC(c3ccc(-c4cccnc4)cn3)CC2)CCOCC1` [Example 390] are 7880 nM and 6.72 nM.
Regarding `O=C(NO)C1(S(=O)(=O)N2CCC(c3ccc(-c4ccccc4)cn3)CC2)CCOCC1` [Example 392], the Ki was found to be 3430 nM in experiment [1] and 4.23 nM in experiment [2].
Turning to `O=C(NO)C1(S(=O)(=O)N2CCC(c3ccc(-c4cccs4)cn3)CC2)CCOCC1` [Example 394], the Ki in experiment [1] was determined as 2750 nM; in experiment [2], 1.73 nM.
As for `O=C(NO)C1(S(=O)(=O)N2CCC(c3ccc(-c4ccc(C(F)(F)F)cc4)cn3)CC2)CCOCC1` [Example 395], the inhibition constant (Ki) in experiment [1] is above 10000 nM; in experiment [2] it was 0.89 nM.
Consider `CCCCc1ccc(C2CCN(S(=O)(=O)C3(C(=O)NO)CCN(CC)CC3)CC2)nc1` [Example 396], for which the Ki was above 10000 nM in experiment [1] and 2.19 nM in experiment [2].

The record behind these values is patent US20050209278A1, “Piperidinyl- and piperazinyl-sulfonylmethyl hydroxamic acids and their use as protease inhibitors” (priority 2002, published 2005).
